Results from patent US10668040B2, “Treatment of urea cycle disorders in neonates and infants” (Horizon Therapeutics, LLC, priority 2017, dated 2020).

What was measured:
Type in all cases: in vivo, human
[1] = tested on: pediatric patients with UCDs; test: HPN-100-012 switch-over study: 24-hour blood ammonia on HPN-100 vs NaPBA
From the text: HPN-100-012 was an open-label, fixed sequence, switch-over study of the safety, PK and efficacy of HPN-100 compared to NaPBA in patients with UCDs, with a 12-month safety extension part. […] After review of all the safety data by the DSMB, 8 additional subjects were enrolled in the study after the switch-over phase was completed.

pediatric UCD patients = test: Pooled ammonia analyses from short term studies
Procedure: Pooled ammonia analyses from short term studies were also conducted.

[2] = Pharmacokinetics of HPN-100 and NaPBA, study HPN-100-005; conditions: HPN-100-005 (N = 11)
From the text: (§1) The pharmacokinetics of the short term studies can be summarized as follows. Mean exposure levels of HPN-100 metabolites PBA, PAA, and PAGN after doses of HPN-100 and NaPBA with meals (TID) in pediatric (29 days to 17 years of age) UCD patients in HPN-100-005 and HPN-100-012 studies are summarized below. The mean exposure to PBA, the parent metabolite, and mean exposure to PAGN, the terminal metabolite, show no systematic variation across age groups, while PAA exposure tended to decrease with increasing age, a finding consistent with those from population PK modeling which indicate that the rate of clearance/metabolism of PAA varies directly with body size. While systemic metabolite exposure, assessed as peak plasma concentration (Cmax) or AUC, is generally similar for HPN-100 and NaPBA, the minimum concentration (Cmin-ss) was higher—and/or percent-fluctuation less—for plasma PAGN, a finding consistent with slower gastrointestinal absorption of PBA when administered orally as HPN-100.

[3] = Pharmacokinetics of HPN-100 and NaPBA, study HPN-100-012; conditions: HPN-100-012 (N = 15)
From the text: as §1

- Plasma PAA % Fluctuation ([2]; mean (CV %)): 3931 (85.1) %
- Plasma PAA AUC0-24 ([2]; mean (CV %)): 773 (73.3) μg · h/mL
- Plasma PAA CLss/F ([2]; mean (CV %)): 34391 (162.5) mL/min
- Plasma PAA Cmax-ss ([2]; mean (CV %)): 75.1 (64.4) μg/mL
- Plasma PAA Cmin-ss ([2]; mean (CV %)): 0.674 (130.5) μg/mL
- Plasma PAGN % Fluctuation ([2]; mean (CV %)): 1917 (54.8) %
- Plasma PAGN AUC0-24 ([2]; mean (CV %)): 1015 (44.7) μg · h/mL
- Plasma PAGN CLss/F ([2]; mean (CV %)): 19739 (44.3) mL/min
- Plasma PAGN Cmax-ss ([2]; mean (CV %)): 74.8 (37.3) μg/mL
- Plasma PAGN Cmin-ss ([2]; mean (CV %)): 4.6 (66.4) μg/mL
- Plasma PBA % Fluctuation ([2]; mean (CV %)): 1979 (123.7) %
- Plasma PBA AUC0-24 ([2]; mean (CV %)): 236 (105.2) μg · h/mL
- Plasma PBA CLss/F ([2]; mean (CV %)): 145463 (123.4) mL/min
- Plasma PBA Cmax-ss ([2]; mean (CV %)): 37.4 (101.6) μg/mL
- Plasma PBA Cmin-ss ([2]; mean (CV %)): 0.37 (171.3) μg/mL
- U-PAGN Ae0-12 ([2]; mean (CV %)): 7098020 (47.5) μg
- U-PAGN Ae12-24 ([2]; mean (CV %)): 5414406 (71.9) μg
- U-PAGN Fe0-12 ([2]; mean (CV %)): 39.6 (30.0) %
- U-PAGN Fe12-24 ([2]; mean (CV %)): 29.3 (52.8) %
- U-PAGN Fe % dose ([2]; mean (CV %)): 69.0 (23.9) %
- Plasma PAA Tmax-ss ([2]; median): 12.00 h
- Plasma PAGN Tmax-ss ([2]; median): 12.00 h
- Plasma PBA Tmax-ss ([2]; median): 12.00 h
- Plasma PAA % Fluctuation ([3]; mean (CV %)): 1289 (102.8) %
- Plasma PAA AUC0-24 ([3]; mean (CV %)): 1458 (211.3) μg · h/mL
- Plasma PAA CLss/F ([3]; mean (CV %)): 94249 (243.7) mL/min
- Plasma PAA Cmax-ss ([3]; mean (CV %)): 98.0 (152.1) μg/mL
- Plasma PAA Cmin-ss ([3]; mean (CV %)): 49.2 (287.2) μg/mL
- Plasma PAGN % Fluctuation ([3]; mean (CV %)): 1459 (74.1) %
- Plasma PAGN AUC0-24 ([3]; mean (CV %)): 946 (75.5) μg · h/mL
- Plasma PAGN CLss/F ([3]; mean (CV %)): 14360 (93.0) mL/min
- Plasma PAGN Cmax-ss ([3]; mean (CV %)): 74.4 (61.3) μg/mL
- Plasma PAGN Cmin-ss ([3]; mean (CV %)): 17.7 (159.6) μg/mL
- Plasma PBA % Fluctuation ([3]; mean (CV %)): 5102 (75.9) %
- Plasma PBA AUC0-24 ([3]; mean (CV %)): 483 (146.0) μg · h/mL
- Plasma PBA CLss/F ([3]; mean (CV %)): 112093 (136.4) mL/min
- Plasma PBA Cmax-ss ([3]; mean (CV %)): 60.4 (128.3) μg/mL
- Plasma PBA Cmin-ss ([3]; mean (CV %)): 0.993 (227.3) μg/mL
- Plasma PAA Tmax-ss ([3]; median): 8.00 h
- Plasma PAGN Tmax-ss ([3]; median): 8.00 h
- Plasma PBA Tmax-ss ([3]; median): 8.30 h
Compound: O=C([O-])CCCc1ccccc1.[Na+] [NaPBA, sodium phenylbutyrate]
- Mean blood ammonia ([1]; 12-hour time point, HPN-100 Day 10, NaPBA Day 1): 41.03 µmol/L
- Mean blood ammonia ([1]; 24-hour time point, NaPBA Day 1): 34.66 µmol/L
- Mean blood ammonia levels following an overnight fast ([1]; pre-dose and 24 hours post dose): normal
- abnormal ammonia values (pediatric UCD patients): 35%
- U-PAGN Ae ([2]; mean (CV %)): 12512426 (51.3) μg
